Experimental data from patent US20140061616A1, “ORGANIC SEMICONDUCTOR MATERIAL, COATING LIQUID CONTAINING THE MATERIAL, AND ORGANIC THIN FILM TRANSISTOR” (IDEMITSU KOSAN CO., LTD., priority 2010, published 2014).

Legend:
[1] = Evaluation of solubility: temperature of toluene required to dissolve the compound at 0.4 mass %; assay type: physicochemical; details: concentration of 0.4 mass %
[2] = Storage stability of organic semiconductor material: carrier mobility after storage in air; assay type: physicochemical; details: deposited transistor stored for 9 days in air
Experimental: An organic thin film transistor was obtained in the same manner as in Example 17, except that pentacene (see the following formula) was used as the material for forming the organic semiconductor layer instead of the compound (A-3).
The field-effect mobility μ of holes in the organic thin film transistor was calculated in the same manner as in Example 17, and found to be […]. The carrier mobility calculated after storing the organic thin film transistor for 9 days in air was […].

CCCCCCCCCCCCc1ccc2c(c1)sc1c2ccc2c1ccc1c3ccc(CCCCCCCCCCCC)cc3sc12 [Comparative compound (1)]
Dissolution temperature (° C.) in toluene [1]: 90 °C

c1ccc2c(c1)sc1c2ccc2c1ccc1c3ccccc3sc12 [Comparative compound (2)]
Dissolution temperature (° C.) in toluene [1]: Insoluble | Dissolution temperature (° C.) in toluene ([1]; listed as comparative compound (2)): not sufficiently dissolved

CCCCCc1ccc2c(c1)sc1c2ccc2c1ccc1c3ccc(CCCCC)cc3sc12 [Compound A-3]
Dissolution temperature (° C.) in toluene [1]: 80 °C | carrier mobility after storage [2]: 1.1 cm^2/Vs | deterioration in carrier mobility on storage [2]: a deterioration in carrier mobility was not observed

c1ccc2cc3cc4cc5ccccc5cc4cc3cc2c1 [pentacene]
carrier mobility after storage [2]: 1.3×10^3 cm^2/Vs
